Values joined by “and” are separate entries in the source; they are usually repeats but may differ in a detail not shown here. Identical values can stand only once.
How the values were obtained:
[1] = tested on: corn ear worm (Heliothus zea); assay: Exemplary compound applied after insecticide, sweet corn; assay type: in vivo
From the text: An exemplary compound, methyl anthranilate, was applied to sweet corn after the crop had been treated with an insecticide (e.g., the pyrethrin insecticide WARRIOR™) to control corn ear worm (Heliothus zea). Prior to application of the exemplary compound, few if any larvae, which typically reside in the developing ear, were observed on the ground around the corn stalks.
After applying the exemplary compound, methyl anthranilate, at a concentration of approximately 4.5 oz.

[2] = tested on: Aenictus; details: in vivo; cited from earlier work
[3] = tested on: house flies; assay: Treated aluminum siding section on building; assay type: in vivo, D. melanogater; details: 0.025%, thirty minutes after application
From the text: (§1) An exemplary compound, methyl anthranilate (e.g. Bird Shield™) was applied at 0.025% concentration to a three foot by one foot (three square feet) section of aluminum siding (treated section) and compared with a equal sized section of aluminum siding (untreated section) on the side of a building. Approximately 23 to 25 house flies (D. melanogater) had landed and were resting on each section. […] All of the flies on the untreated section remained. […] Twenty-three flies remained on the adjacent untreated section.

[4] = tested on: house flies (D. melanogater); assay: Treated aluminum siding section on building; assay type: in vivo; details: 0.025%
From the text: as §1

[5] = tested on: Thaumatomyia glabra (Meigen) flies; details: in vivo; cited from earlier work
[6] = tested on: birds; details: in vivo; cited from earlier work
[7] = tested on: sunflower seed weevils (Smicronyx spp.); assay: Comparison to DEET product, drawing weevils out of sunflower heads; assay type: in vivo
From the text: DEET is often used by entomologists in standard procedures to draw sunflower seed weevils (Smicronyx spp.) out of the heads of sunflowers. In this trial, DEET was provided in the commercially available product DEEP WOODS OFF™ repellent (S.C. Johnson and Son's, Racine, Wis.), which has approximately 28.5% active ingredient; 1.5% other isomers and 70% inert ingredients. Forty-two flowers were randomly selected from interiors of three fields. One-half of the flowers were sprayed with the DEET containing repellent while the remaining flowers were sprayed with the exemplary compound at a concentration of approximately 0.00312% methyl anthranilate, which was combined with long chained fatty acids. The number of sunflower weevils was recorded.

[8] = tested on: T. tabaci; details: in vivo; cited from earlier work
[9] = tested on: mites and spiders; assay: Sunflower field application, other insects on treated sunflowers; assay type: in vivo; details: BIRDSHIELD at 0.006%, approx. two weeks after ASANA
From the text: An insecticide, ASANA™, was applied to sunflowers. Approximately two weeks later, an exemplary compound, methyl anthranilate (e.g., BIRDSHIELD™ at 0.006%) was applied to the same sunflowers. […] This behavior caused the larvae to fall off of the flower portions of the sunflowers. In addition, the exemplary compound affected behavior of other insects on the treated sunflowers.

[10] = tested on: Thrips hawaiiensis; details: in vivo; cited from earlier work
[11] = tested on: Camponotus spp.; details: in vivo; cited from earlier work
[12] = tested on: fruit flies (Drosophila spp.); assay: Attraction of fruit flies, sticky trap with treated surface; assay type: in vivo
From the text: An exemplary compound, methyl anthranilate, was combined with fatty acid and used to attract insects, in particular, fruit flies (Drosophila spp.). This exemplary compound will also repel at least some birds. […] An exemplary compound, methyl anthranilate, was combined with fatty acid and applied to a surface (e.g., a treated surface) of a sticky trap and used to attract and to trap insects, in particular, fruit flies (Drosophilia spp.). This exemplary compound will also repel at least some birds.
A trial compared insect attraction for an untreated surface of a sticky trap and with a treated surface of a sticky trap.
For example, grape crushing and/or fermenting may release competitive agents.

[13] = tested on: mosquito (Aedes aegyptis); assay: Mosquito repellency on human subject; assay type: in vivo
From the text: In these trials, DEET was provided in the commercially available product DEEP WOODS OFF™ repellent (S.C. Johnson & Son, Inc., Racine, Wis.), which has approximately 28.5% active ingredient; 1.5% other isomers and 70% inert ingredients.
In a first trial, a human subject was exposed to a mosquito (Aedes aegyptis) rich environment without application of the exemplary compound or DEET. Within less than one minute the subject was covered with the insects. In a second trial, the subject sprayed one unclothed arm with the exemplary compound at a rate of 0.00312% and the other unclothed arm with DEET at a concentration of 0.24%. The subject's head remained untreated. Upon returning to the test area, the subject's head was covered with the insects within one minute. […] In a third trial the subject, after removing the DEET from his/her body, reapplied the exemplary compound to unclothed arms, head and neck before returning to the test area. The subject returned to and remained in the test area for more than one hour without any of the insects landing on his/her arms, hands and head while numerous insects were observed on the clothed portions of his/her anatomy.

[14] = tested on: corn ear worm (Heliothus zea); assay: Crop field trials with lambda cyalothrin insecticide, corn ear worm larvae; assay type: in vivo
From the text: An exemplary compound, methyl anthranilate, was combined with fatty acid and applied to crop fields (again, this formulation will also repel at least some birds), contemporaneously, an insecticide having a pyrethrin, lambda cyalothrin, as an active ingredient was applied to crop fields (e.g., WARRIOR™).
In another trial, an insecticide that included a pyrethrin, lambda cyalothrin, was applied to crop fields (e.g., WARRIOR™). […] Later, an exemplary compound, methyl anthranilate, combined with a fatty acid, was applied to the same crop field. […] An exemplary composition included an exemplary compound, methyl anthranilate, fatty acid and an insecticide that included a pyrethrin, lambda cyalothrin, as an active ingredient (e.g., WARRIOR™). The exemplary composition was applied to crop fields.

COC(=O)c1ccccc1N [methyl anthranilate]
insects on the ground around the corn stalks ([1]; approximately 4.5 oz. (127 g) per acre by aircraft, after WARRIOR treatment): a significant number of insects were observed on the ground
worms in the corn ears at harvest ([1]; insecticide (WARRIOR) and methyl anthranilate): did not contain any significant number of worms
semiochemical function for Aenictus [2]: trail semiochemicals
flies attempting to land on treated section within a five minute period [3]: approximately 30 flies
flies resting on treated section ([4]; immediately after application): all of the flies departed
flies on treated section ([4]; one hour after application): no flies were observed trying to land on the treated section
time flies remained on treated section ([4]; thirty minutes after application): 6 to 8 s
flies on treated section ([4]; twenty-four hours after application): no flies were observed on the treated section
attraction of Thaumatomyia glabra flies [5]: attractive
repellency to birds [6]: exhibit repellency to birds
Number of insects, Mean ([7]; Field No. 1): 6.8
Number of insects, Total ([7]; Field No. 1): 68
Number of insects, Mean ([7]; Field No. 2): 24
Number of insects, Total ([7]; Field No. 2): 72
Number of insects ([7]; Field No. 2, per flower, DEET as DEEP WOODS OFF, methyl anthranilate approx. 0.00312% with long chained fatty acids): 23 and 24 and 26
Number of insects, Mean ([7]; Field No. 3): 8.4
Number of insects, Total ([7]; Field No. 3): 67
effectiveness compared with DEET ([7]; approx. 0.00312% methyl anthranilate with long chained fatty acids vs DEET repellent product): generally more effective than DEET
attraction of T. tabaci [8]: did not attract
behavior of mites and spiders on treated sunflowers [9]: observed to appear from spaces between maturing seeds and to subsequently fall off the flower portion of the sunflowers
attraction of Thrips hawaiiensis [10]: are attracted
effect on Camponotus spp. [11]: trigger flight of sexuals from nest
attraction of fruit flies ([12]; combined with fatty acid): attracted fruit flies
effectiveness in a competitive environment ([12]; grape crushing and/or fermenting may release competitive agents): may be diminished in a competitive environment
insects on treated surface of sticky trap ([12]; in less than one minute, only a few insects on untreated surface): covered with insects
effectiveness as mosquito repellent compared with DEET ([13]; at lower concentrations): as effective as DEET
mosquitoes on treated unclothed arm ([13]; second trial, methyl anthranilate 0.00312%, DEET 0.24%, untreated head covered within one minute): No mosquitoes were found
time in test area without insects landing on treated arms, hands and head ([13]; third trial): more than one
corn ear worm larvae on the ground ([14]; combined with a fatty acid, applied later to field already treated with lambda cyalothrin, within a day): littered the ground
corn ear worm larvae on the ground ([14]; combined with fatty acid, applied contemporaneously with lambda cyalothrin insecticide (WARRIOR), within a day of treatment): littered the ground

From patent US8092790B2, “Methods of making formulations to affect insect behavior and/or bird behavior” (Bug Buster, Ltd., priority 2003, dated 2012)
